In patent publication US20090076006A1, “HSP90 INHIBITORS CONTAINING A ZINC BINDING MOIETY” (priority 2007, published 2009):

How the values were obtained:
[1] = test system: HDAC (HeLa nuclear extract); assay: HDAC fluorimetric assay (inhibition of HDAC enzymatic activity); format: biochemical; conditions: HDAC fluorimetric assay kit
Experimental: (c) An In Vitro Assay which Determines the Ability of a Test Compound to Inhibit HDAC Enzymatic Activity.
HDAC inhibitors were screened using an HDAC fluorimetric assay kit (AK-500, Biomol, Plymouth Meeting, Pa.). Test compounds were dissolved in dimethylsulphoxide (DMSO) to give a 20 mM working stock concentration. Fluorescence was measured on a WALLAC Victor 2 plate reader and reported as relative fluorescence units (RFU). Data were plotted using GraphPad Prism (v4.0a) and IC50's calculated using a sigmoidal dose response curve fitting algorithm. Each assay was setup as follows: Defrosted all kit components and kept on ice until use. Diluted HeLa nuclear extract 1:29 in Assay Buffer (50 mM Tris/Cl, pH 8.0, 137 mM NaCl, 2.7 mM KCl, 1 mM MgCl2). Prepared dilutions of Trichostatin A (TSA, positive control) and tested compounds in assay buffer (5× of final concentration). Diluted Fluor de Lys™ Substrate in assay buffer to 100 uM (50 fold=2× final). Diluted Fluor de Lys™ developer concentrate 20-fold (e.g. 50 μl plus 950 μl Assay Buffer) in cold assay buffer. Second, diluted the 0.2 mM Trichostatin A 100-fold in the 1× Developer (e.g. 10 μl in 1 ml; final Trichostatin A concentration in the 1× Developer=2 μM; final concentration after addition to HDAC/Substrate reaction=1 μM). Added Assay buffer, diluted trichostatin A or test inhibitor to appropriate wells of the microtiter plate. Added diluted HeLa extract or other HDAC sample to all wells except for negative controls. Allowed diluted Fluor de Lys™ Substrate and the samples in the microtiter plate to equilibrate to assay temperature (e.g. 25 or 37° C. Initiated HDAC reactions by adding diluted substrate (25 μl) to each well and mixing thoroughly. Allowed HDAC reactions to proceed for 1 hour and then stopped them by addition of Fluor de Lys™ Developer (50 μl). Incubated plate at room temperature (25° C.) for 10-15 min. Read samples in a microtiter-plate reading fluorimeter capable of excitation at a wavelength in the range 350-380 nm and detection of emitted light in the range 440-460 nm.

HSP90 = biological target: T1, HSP90 (Homo sapiens, UniProt P07900); assay: HSP90 assay (chaperone luciferase refolding / competition binding fluorescence polarization); conditions: Table B does not say which of the two described
T1 construct: purchased Assay Design SPP-776F
Experimental: (a) An In Vitro Assay which Determines the Ability of a Test Compound to Inhibit Hsp90 Chaperone Activity.
The Hsp90 chaperone assay was performed to measure the ability of HSP90 protein to refold the heat-denatured luciferase protein. HSP90 was first incubated with different concentrations of test compounds in denaturation buffer (25 mM Tris, pH7.5, 8 mM MgSO4, 0.01% bovine gamma globulin and 10% glycerol) at room temperature for 30 min. Luciferase protein was added to denaturation mix and incubated at 50° C. for 8 min. The final concentration of HSP90 and luciferase in denaturation mixture were 0.375 μM and 0.125 μM respectively. A 5 μl sample of the denatured mix was diluted into 25 μl of renaturation buffer (25 mM Tris, pH7.5, 8 mM MgSO4, 0.01% bovine gamma globulin and 10% glycerol, 0.5 mM ATP, 2 mM DTT, 5 mM KCl, 0.3 μM HSP70 and 0.15 μM HSP40). The renaturation reaction was incubated at room temperature for 150 min, followed by dilution of 10 μl of the renatured sample into 90 μl of luciferin reagent (Luclite, PerkinElmer Life Science). The mixture was incubated at dark for 5 min before reading the luminescence signal on a TopCount plate reader (PerkinElmer Life Science).
(b) HSP90 Competition Binding (Fluorescence Polarization) Assay.
A fluorescein isothiocyanate (FITC) labeled GM was purchase from InvivoGen (ant-fgl-1). The interaction between HSP90 and labeled GM forms the basis for the fluorescence polarization assay. A free and fast-tumbling FITC labeled GM emits random light with respect to the plane of polarization plane of excited light, resulting in a lower polarization degree (mP) value. When GM is bound to HSP90, the complex tumble slower and the emitted light is polarized, resulting in a higher mP value. This competition binding assay was performed in 96-well plate and with each assay contained 10 and 50 nM of labeled GM and purified HSP90 protein (Assay Design, SPP-776F) respectively. The assay buffer contained 20 mM HEPES (pH 7.3), 50 mM KCl, 1 mM DTT, 50 mM MgCl2, 20 mM Na2MoO4, 0.01% NP40 with 0.1 mg/ml bovine gamma-globulin. Compounds are diluted in DMSO and added to the final assay before labeled GM with concentration range from 20 uM to 2 nM. mP value was determined by BioTek Synergy II with background subtraction after 24 hours of incubation at 4° C.

Row | IC50 [1] [nM] | IC50 (HSP90) [nM] | melting point [°C] | SMILES
1 | 100 to 1000 | ≤ 100 | 164 to 166 | CC(C)c1cc(-c2onc(C(=O)NCCCCCC(=O)NO)c2-c2ccc(CN3CCOCC3)cc2)c(O)cc1O [Compound 27, 5-(2,4-Dihydroxy-5-isopropylphenyl)-N-(6-(hydroxyamino)-6-oxohexyl)-4-(4-(morpholinomethyl)phenyl)isoxazole-3-carboxamide]
2 | ≤ 100 | ≤ 100 | 109 to 111 | CC(C)c1cc(-c2onc(C(=O)NCCCCCCC(=O)NO)c2-c2ccc(CN3CCOCC3)cc2)c(O)cc1O [Compound 28, 5-(2,4-Dihydroxy-5-isopropylphenyl)-N-(7-(hydroxyamino)-7-oxoheptyl)-4-(4-(morpholinomethyl)phenyl)isoxazole-3-carboxamide]
3 | 100 to 1000 | ≤ 100 | 117 to 119 | CC(C)c1cc(-c2onc(C(=O)NCCCCCCCC(=O)NO)c2-c2ccc(CN3CCOCC3)cc2)c(O)cc1O [Compound 29, 5-(2,4-Dihydroxy-5-isopropylphenyl)-N-(8-(hydroxyamino)-8-oxooctyl)-4-(4-(morpholinomethyl)phenyl)isoxazole-3-carboxamide]
